These results are taken from patent US20130217664A1, “NOVEL COMPOUNDS USEFUL FOR THE TREATMENT OF DEGENERATIVE AND INFLAMMATORY DISEASES” (priority 2012, published 2013).

Bounds are passed on as bounds.

What all share (assay type): biochemical
In one assay the target is T1, human JAK3 (Homo sapiens, UniProt P52333).
T1 construct: catalytic domain (amino acids 781-1124; catalog number PV3855); purchased Invitrogen PV3855
Kind of assay: JAK3 inhibition assay. The conditions noted are these: recombinant human JAK3 catalytic domain; polyGT substrate. As to the method: 1.3 JAK3 Inhibition Assay
0.5 ng JAK3 protein was incubated with 2.5 μg polyGT substrate (Sigma catalog number P0275) in kinase reaction buffer (25 mM Tris pH 7.5, 0.5 mM EGTA, 10 mM MgCl2, 2.5 mM DTT, 0.5 mM Na3VO4, 5 mM b-glycerolphosphate, 0.01% Triton X-100, 1 μM non-radioactive ATP, 0.25 μCi 33P-gamma-ATP (GE Healthcare, catalog number AH9968) final concentrations) with or without 5 μL containing test compound or vehicle (DMSO, 1% final concentration), in a total volume of 25 μL, in a polypropylene 96-well plate (Greiner, V-bottom). After 45 min at 30° C., reactions were stopped by adding 25 μL/well of 150 mM phosphoric acid. […] Plates were washed 6 times with 300 μL per well of a 75 mM phosphoric acid solution and the bottom of the plates was sealed. 40 μL/well of Microscint-20 was added, the top of the plates was sealed and readout was performed using the Topcount (Perkin Elmer). Kinase activity was calculated by subtracting counts per min (cpm) obtained in the presence of a positive control inhibitor (10 μM staurosporine) from cpm obtained in the presence of vehicle. The ability of a test compound to inhibit this activity was determined as:
(§1) Percentage inhibition=((cpm determined for sample with test compound present−cpm determined for sample with positive control inhibitor)divided by(cpm determined in the presence of vehicle−cpm determined for sample with positive control inhibitor))*100.
Dose dilution series were prepared for the compounds enabling the testing of dose-response effects in the JAK3 assay and the calculation of the IC50 for each compound. Each compound was routinely tested at concentration of 20 μM followed by a 1/5 serial dilution, 10 points in a final concentration of 1% DMSO.

The target of another assay is T2, human TYK2 (Homo sapiens, UniProt P29597).
T2 construct: catalytic domain (amino acids 871-1187; catalog number 08-147); purchased Carna Biosciences 08-147
T2 sequence (P29597 871-1187): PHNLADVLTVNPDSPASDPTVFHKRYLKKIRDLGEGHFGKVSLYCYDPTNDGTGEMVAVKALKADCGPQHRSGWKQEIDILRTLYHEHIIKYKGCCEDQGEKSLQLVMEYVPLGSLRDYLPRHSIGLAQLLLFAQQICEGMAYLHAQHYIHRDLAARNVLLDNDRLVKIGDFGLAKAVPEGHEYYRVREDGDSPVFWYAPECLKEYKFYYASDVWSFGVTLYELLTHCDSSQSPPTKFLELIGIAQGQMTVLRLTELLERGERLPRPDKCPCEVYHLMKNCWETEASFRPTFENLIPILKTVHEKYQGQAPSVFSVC
Kind of assay: TYK2 inhibition assay. The conditions noted are these: recombinant human TYK2 catalytic domain, polyGT substrate. As to the method:
1.4 TYK2 Inhibition Assay
After 90 min at 30° C., reactions were stopped by adding 25 μL/well of 150 mM phosphoric acid. […] Plates were washed 6 times with 300 μL per well of a 75 mM phosphoric acid solution and the bottom of the plates was sealed. 40 μL/well of Microscint-20 was added, the top of the plates was sealed and readout was performed using the Topcount (Perkin Elmer). Kinase activity was calculated by subtracting counts per min (cpm) obtained in the presence of a positive control inhibitor (10 μM staurosporine) from cpm obtained in the presence of vehicle. The ability of a test compound to inhibit this activity was determined as:
as §1
Dose dilution series were prepared for the compounds enabling the testing of dose-response effects in the TYK2 assay and the calculation of the IC50 for each compound.

In another assay the target is T3, human JAK2 (Homo sapiens, UniProt O60674).
T3 construct: catalytic domain (amino acids 808-1132; catalog number PV4210); GST; purchased Invitrogen PV4210
In words: JAK2 inhibition assay (polyGT substrate / Ulight-JAK1 peptide). The conditions noted are these: recombinant human JAK2 catalytic domain; polyGT or Ulight-JAK1 peptide assay. The gist of the method:
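Two JAK2 formats: a ^33P-ATP polyGT assay (1 μM cold ATP, 90 min, 30° C., cpm read-out) and a Ulight-JAK1 peptide assay read by Europium-anti-phosphotyrosine fluorescence after 60 min at room temperature.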

A further assay deals with T4, human JAK1 (Homo sapiens, UniProt P23458).
T4 construct: catalytic domain, amino acids 866-1154; catalog number PV4774; purchased Invitrogen PV4774
Kind of assay: JAK1 inhibition assay (polyGT substrate / Ulight-JAK1 peptide). Particulars: recombinant human JAK1 catalytic domain; polyGT or Ulight-JAK1 peptide assay. Put shortly:
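Signal scaled between vehicle and 10 μM staurosporine. Radiometric polyGT reactions ran 45 min at 30 °C, counted after phosphoric-acid stop. Ulight peptide reactions ran 60 min at room temperature, fluorescence read after adding Eu-PT66 detection mix with EDTA.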

T1 sequence (P52333 781-1124): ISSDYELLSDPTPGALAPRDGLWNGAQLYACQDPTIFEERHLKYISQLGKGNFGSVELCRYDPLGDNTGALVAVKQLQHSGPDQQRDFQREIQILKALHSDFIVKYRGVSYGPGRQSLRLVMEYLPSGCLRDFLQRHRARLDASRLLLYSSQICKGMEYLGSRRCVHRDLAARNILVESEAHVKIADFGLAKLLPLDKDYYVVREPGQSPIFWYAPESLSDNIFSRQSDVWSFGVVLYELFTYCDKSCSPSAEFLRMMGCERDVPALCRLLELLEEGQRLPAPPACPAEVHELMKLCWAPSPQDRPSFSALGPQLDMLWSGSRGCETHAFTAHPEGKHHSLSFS
T3 sequence (O60674 808-1132): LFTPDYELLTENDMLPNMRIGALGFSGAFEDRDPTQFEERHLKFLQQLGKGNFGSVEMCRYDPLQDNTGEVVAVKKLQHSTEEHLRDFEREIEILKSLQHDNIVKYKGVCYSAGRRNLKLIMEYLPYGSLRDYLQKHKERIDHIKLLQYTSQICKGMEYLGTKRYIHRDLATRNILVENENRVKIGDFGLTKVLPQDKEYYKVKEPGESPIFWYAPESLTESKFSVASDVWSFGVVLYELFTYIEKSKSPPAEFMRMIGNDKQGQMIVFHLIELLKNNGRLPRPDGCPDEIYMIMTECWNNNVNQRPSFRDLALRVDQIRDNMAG
T4 sequence (P23458 866-1154): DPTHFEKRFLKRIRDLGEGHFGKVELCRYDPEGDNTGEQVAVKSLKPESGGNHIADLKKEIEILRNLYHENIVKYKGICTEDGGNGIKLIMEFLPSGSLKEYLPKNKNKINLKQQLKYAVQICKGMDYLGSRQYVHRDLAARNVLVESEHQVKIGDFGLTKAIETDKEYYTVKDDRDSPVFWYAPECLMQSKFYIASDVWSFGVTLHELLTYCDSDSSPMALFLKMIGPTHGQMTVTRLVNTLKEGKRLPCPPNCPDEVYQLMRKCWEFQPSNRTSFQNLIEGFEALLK

As a reminder, the IC50 is the point on the concentration scale where inhibition reaches its midpoint. As to `CCN(c1ccc2occc2c1)c1cc2c(cn1)ncn2C` [Compound 4, N-(benzofuran-5-yl)-N-ethyl-1-methyl-1H-imidazo[4,5-c]pyridin-6-amine], the IC50 at human JAK3 was > 1000 nM; at human TYK2, 101 to 500 nM; at human JAK2, > 1000 nM; on human JAK1 it was 101 to 500 nM.

For `COc1ccc(N(C)c2cc3c(cn2)ncn3C)cc1` [Compound 2, N-(4-methoxyphenyl)-N,1-dimethyl-1H-imidazo[4,5-c]pyridin-6-amine], the IC50 was > 1000 nM on human JAK3, > 1000 nM on human TYK2, > 1000 nM at human JAK2 and 101 to 500 nM on human JAK1.

As for `CCc1cc(C2CN(C(=O)C3(C#N)CC3)C2)ccc1N(C)c1cc2c(cn1)ncn2C` [Compound 348, 1-(3-{3-Ethyl-4-[methyl-(1-methyl-1H-imidazo[4,5-c]pyridin-6-yl)-amino]-phenyl}-azetidine-1-carbonyl)-cyclopropanecarbonitrile], the IC50 at human JAK3 was > 1000 nM; on human TYK2, > 1000 nM; at human JAK2 it was 501 to 1000 nM; on human JAK1, 101 to 500 nM.

Regarding `CN(c1cc2c(cn1)ncn2C)c1ccc(CN(CC2CC2)S(C)(=O)=O)cc1F` [Compound 360], the IC50 at human JAK3 is > 1000 nM; on human TYK2, > 1000 nM; on human JAK2, 101 to 500 nM; on human JAK1, 101 to 500 nM.

With `CCc1ccccc1N(CCN1CCOCC1)c1cc2c(cn1)ncn2C` [Compound 460, N-(2-ethylphenyl)-1-methyl-N-(2-morpholinoethyl)-1H-imidazo[4,5-c]pyridin-6-amine], the IC50 at human JAK3 was > 1000 nM; on human TYK2, > 1000 nM; on human JAK2 it was > 1000 nM; at human JAK1 it was 101 to 500 nM.

In the case of `CN(c1cc2c(cn1)ncn2C)c1ccc(C#N)cc1OC(F)F` [Compound 428, 3-Difluoromethoxy-4-[methyl-(1-methyl-1H-imidazo[4,5-c]pyridin-6-yl)-amino]-benzonitrile], the IC50 on human JAK3 is > 1000 nM; at human TYK2, > 1000 nM; on human JAK2 it was > 1000 nM; on human JAK1, 101 to 500 nM.

Turning to `CCc1ncncc1N(C)c1cc2c(cn1)ncn2C` [Compound 456, (4-Ethyl-pyrimidin-5-yl)-methyl-(1-methyl-1H-imidazo[4,5-c]pyridin-6-yl)-amine], the half-inhibitory concentration (IC50) on human JAK3, on human TYK2, on human JAK2 and at human JAK1 was > 1000 nM throughout.

With `CCC(=O)NC1CN(C(C#N)c2ccc(N(C)c3cc4c(cn3)ncn4C)c(CC)c2)C1` (stereo not drawn) [Compound 454, N-[1-(Cyano-{3-ethyl-4-[methyl-(1-methyl-1H-imidazo[4,5-c]pyridin-6-yl)-amino]-phenyl}-methyl)-azetidin-3-yl]-propionamide], the IC50 was 101 to 500 nM at human JAK3, 0.01 to 100 nM on human TYK2, 0.01 to 100 nM on human JAK2 and 0.01 to 100 nM on human JAK1.

As to `CCc1cc(C#N)c(C(F)(F)F)cc1N(C)c1cc2c(cn1)ncn2C` [Compound 321, 5-Ethyl-4-[methyl-(1-methyl-1H-imidazo[4,5-c]pyridin-6-yl)-amino]-2-trifluoromethyl-benzonitrile], the half-maximal inhibitory concentration (IC50) on human JAK3, at human TYK2, on human JAK2 and on human JAK1 was > 1000 nM in each case.

As to `CCc1cn(C2(CC#N)CN(S(C)(=O)=O)C2)nc1N(C)c1cc2c(cn1)ncn2C` [Compound 310, (3-{4-Ethyl-3-[methyl-(1-methyl-1H-imidazo[4,5-c]pyridin-6-yl)-mino]-pyrazol-1-yl}-1-methanesulfonyl-azetidin-3-yl)-acetonitrile], the concentration for half-maximal inhibition (IC50) at human JAK3, at human TYK2, on human JAK2 and at human JAK1 was > 1000 nM in each case.

In the case of `CN(c1cc2c(cn1)ncn2C)c1ccc(C2CN(C(=O)N3CCOCC3)C2)cc1OC(F)F` [Compound 368], the IC50 at human JAK3 is > 1000 nM; on human TYK2, > 1000 nM; at human JAK2, > 1000 nM; on human JAK1, 501 to 1000 nM.

For `CCc1cn(C2(CC#N)CN(C(=O)OC(C)(C)C)C2)nc1N(C)c1cc2c(cn1)ncn2C` [Compound 308, 3-Cyanomethyl-3-{4-ethyl-3-[methyl-(1-methyl-1H-imidazo[4,5-c]pyridin-6-yl)-amino]-pyrazol-1-yl}-azetidine-1-carboxylic acid tert-butyl ester], the IC50 on human JAK3, at human TYK2, at human JAK2 and on human JAK1 was > 1000 nM throughout.

In the case of `CN(c1cc2c(cn1)ncn2C)c1ccc(CN(CC#N)S(C)(=O)=O)cc1F` [Compound 355], the IC50 at human JAK3 was 101 to 500 nM; on human TYK2 it was 101 to 500 nM; on human JAK2 it was 0.01 to 100 nM; at human JAK1, 0.01 to 100 nM.

For `CN(c1cc2c(cn1)ncn2C)c1ccc(C2CN(CC(N)=O)C2)cc1OC(F)F` [Compound 374, 2-(3-{3-Difluoromethoxy-4-[methyl-(1-methyl-1H-imidazo[4,5-c]pyridin-6-yl)-amino]-phenyl}-azetidin-1-yl)-acetamide], the half-inhibitory concentration (IC50) on human JAK3 is > 1000 nM; on human TYK2, > 1000 nM; at human JAK2, 101 to 500 nM; on human JAK1, 101 to 500 nM.

As for `CCc1cc(CC(=O)N2CC(C)(C)C2)ccc1N(C)c1cc2c(cn1)ncn2C` [Compound 386, 1-(3,3-Dimethyl-azetidin-1-yl)-2-{3-ethyl-4-[methyl-(1-methyl-1H-imidazo[4,5-c]pyridin-6-yl)-amino]-phenyl}-ethanone], the IC50 at human JAK3 is > 1000 nM; at human TYK2 it was > 1000 nM; at human JAK2, > 1000 nM; at human JAK1, 101 to 500 nM.

In the case of `CCc1ccccc1N(Cc1cccnc1)c1cc2c(cn1)ncn2C` [Compound 462, N-(2-ethylphenyl)-1-methyl-N-(pyridin-3-ylmethyl)-1H-imidazo[4,5-c]pyridin-6-amine], the half-maximal inhibitory concentration (IC50) at human JAK3 was > 1000 nM; on human TYK2, > 1000 nM; at human JAK2, > 1000 nM; at human JAK1, 501 to 1000 nM.

Regarding `CCc1cc(C2CN(C(=O)CCC(F)(F)F)C2)ncc1N(C)c1cc2c(cn1)ncn2C` [Compound 338, 1-(3-{4-Ethyl-5-[methyl-(1-methyl-1H-imidazo[4,5-c]pyridin-6-yl)-amino]-pyridin-2-yl}-azetidin-1-yl)-4,4,4-trifluoro-butan-1-one], the IC50 on human JAK3 is > 1000 nM; on human TYK2, > 1000 nM; at human JAK2, > 1000 nM; on human JAK1, 501 to 1000 nM.

Regarding `CCc1cc(CNC2CCS(=O)(=O)C2)ccc1N(C)c1cc2c(cn1)ncn2C` (stereo not drawn) [Compound 300, {4-[(1,1-Dioxo-tetrahydro-thiophen-3-ylamino)-methyl]-2-ethyl-phenyl}-methyl-(1-methyl-1H-imidazo[4,5-c]pyridin-6-yl)-amine], the half-maximal inhibitory concentration (IC50) on human JAK3 was > 1000 nM; on human TYK2, 501 to 1000 nM; on human JAK2 it was 101 to 500 nM; on human JAK1, 0.01 to 100 nM.
